Here are results for one substance from patent publication US7303618B1, “Ink for ink-jet recording” (Brother Kogyo Kabushiki Kaisha, priority 2006, dated 2007).

The series can be described thus: Ozone resistance (OD value reduction of printed patch). The conditions noted are these: discussion of Table 1. The format is physicochemical. From the text:
Each of the inks for ink-jet recording was filled into a desired ink cartridge, and the ink cartridge was attached to a digital multifunction device equipped with an ink-jet printer (DCP-110C, product of Brother Industries, Ltd.) to perform the printing evaluation. First, as an evaluation sample, a gradation sample of each cyan ink was printed on photo glossy paper (Model No. BP60GLA, product of Brother Industries, Ltd.) to prepare a patch having an initial OD value of 1.0. This patch was then subjected to an ozone resistance evaluation test using an Ozone Weather Meter OMS-H (product of Suga Test Instruments Co., Ltd.). That is, the patch was left to stand under the conditions of an ozone concentration of 1 ppm, a chamber temperature of 24° C. and a chamber humidity of 60% RH for 40 hours. Specifically, the color patch printed with each cyan ink and having an OD value of 1.0 before the test was then measured for an OD value after the ozone resistance evaluation test was completed. The OD value was measured by means of a Spectrolino (product of Gretag Macbeth) (light source: D65; viewing angle: 2°; Status A). […]
The obtained OD value reduction ratio was then evaluated according to the criteria below. When the OD value reduction ratio is less than 30%, the ozone resistance performance for general use is determined to be at an acceptable level. […]

Consider C. I. Direct Blue 199 [Dye (2-C)], for which the “Ozone resistance (in words)” value was “poor”.
